Data on 44 compounds can be found in patent US20050245527A1, “Nitrogen containing heterocyclic compounds and medicines containing the same” (priority 2002, published 2005).

Where a name gives a salt, the structure may show the parent alone.

The assay relates to sodium channels. In kind it is cell-based. The settings on record: read-out: IC50 (μM), sodium channel-inhibiting activity; rat fetal cultured hippocampal neurons, SBFI fluorescence in the presence of 4-aminopyridine, 5 minutes after addition, 1 μM tetrodotoxin = 100%.
`O=c1[nH]ccnc1CN1CCC(SCc2ccccc2F)CC1` [Example 411, 3-[4-(2-Fluorobenzylthio)piperidino]methyl-1H-pyrazin-2-one]: the IC50 (commonly the concentration that inhibits the measured activity by half) worked out at 4.8 µM.
Next, `O=c1cncc(CCN2CCCC(COc3ccccc3F)C2)[nH]1` (centres unmarked) [Example 117, 6-[2-[3-(2-Fluorophenoxymethyl)piperidino]ethyl]-1H-pyrazin-2-one]: 4.4 µM; `O=C(Cc1ccccc1C(F)(F)F)C1(F)CCN(Cc2ncc[nH]c2=O)CC1` [Example 372, 3-[4-Fluoro-4-[2-[2-(trifluoromethyl)phenyl]acetyl]piperidino]methyl-1H-pyrazin-2-one]: 3.3 µM; `CCOC(=O)C1(CCc2ccccc2)CCN(Cc2ccc[nH]c2=O)CC1` [Example 255, 3-[4-(Ethoxycarbonyl)-4-(2-phenylethyl)piperidino]methyl-1H-pyridin-2-one]: 3.1 µM.
In the case of `O=c1[nH]ccnc1CN1CCC(c2nc(-c3ccccc3)no2)CC1` [Example 215, 3-[4-(3-Phenyl-1,2,4-oxadiazol-5-yl)piperidino]methyl-1H-pyrazin-2-one], the IC50 was found to be 4.1 µM.
As for `CCOc1ccccc1OCC1CCN(Cc2ncc[nH]c2=O)CC1` [Example 165, 3-[4-(2-Ethoxyphenoxymethyl)piperidino]methyl-1H-pyrazin-2-one], the IC50 was 8.4 µM.
With `CC(C(=O)C1CCN(Cc2ncc[nH]c2=O)CC1)c1ccccc1F` (centres unmarked) [Example 349, 3-[4-[2-(2-Fluorophenyl)propionyl]piperidino]methyl-1H-pyrazin-2-one], the IC50 was 8.9 µM.
Next, `CC1(COc2ccccc2F)CCN(Cc2ncc[nH]c2=O)CC1` [Example 406, 3-[4-(2-Fluorophenoxymethyl)-4-methylpiperidino]methyl-1H-pyrazin-2-one]: 3 µM; `O=c1cncc(CCN2CCC(COc3cccc(F)c3)CC2)[nH]1` [Example 238, 6-[2-[4-(3-Fluorophenoxymethyl)piperidino]ethyl]-1H-pyrazin-2-one]: 5.6 µM; `O=C(Cc1cc(F)ccc1F)C1CCN(Cc2ncc[nH]c2=O)CC1` [Example 194, 3-[4-[2-(2,5-Difluorophenyl)acetyl]piperidino]methyl-1H-pyrazin-2-one]: 6.6 µM.
Take `COC(Cc1ccccc1F)C1CCN(Cc2ncc[nH]c2=O)CC1` (centres unmarked) [Example 190, 3-[4-[2-(2-Fluorophenyl)-1-methoxyethyl]piperidino]methyl-1H-pyrazin-2-one]: the IC50 is 1.2 µM.
In the case of `O=c1cncc(CCN2CCC(O)(COc3ccccc3F)CC2)[nH]1` [Example 118, 6-[2-[4-Hydroxy-4-(2-fluorophenoxymethyl)piperidino]ethyl]-1H-pyrazin-2-one], the IC50 stood at 3.1 µM.
As for `O=c1cncc(CCN2CCC(COc3cccc(F)c3F)CC2)[nH]1` [Example 242, 6-[2-[4-(2,3-Difluorophenoxymethyl)piperidino]ethyl]-1H-pyrazin-2-one], the IC50 came out at 6.2 µM.
Turning to `C[C@H]1C[C@H](C(=O)Cc2ccccc2F)CCN1Cc1ncc[nH]c1=O` (relative stereo) [Example 414, trans-3-[4-[2-(2-Fluorophenyl)acetyl]-2-methylpiperidino]methyl-1H-pyrazin-2-one], the IC50 came out at 7.9 µM.
With `O=C(Cc1cccc2c1OCC2)C1CCN(Cc2ncc[nH]c2=O)CC1` [Example 410, 3-[4-[2-(2,3-Dihydrobenzofuran-7-yl)acetyl]piperidino]methyl-1H-pyrazin-2-one], the IC50 was 5.7 µM.
Regarding `O=c1[nH]ccnc1CN1CCC(CO)(CCc2ccccc2)CC1` [Example 219, 3-[4-Hydroxymethyl-4-(2-phenylethyl)piperidino]methyl-1H-pyrazin-2-one], the IC50 is 1.6 µM.
For the compound `COc1ccccc1OCC1(C)CCN(Cc2ncc[nH]c2=O)CC1` [Example 356, 3-[4-(2-Methoxyphenoxymethyl)-4-methylpiperidino]methyl-1H-pyrazin-2-one], the half-maximal inhibitory concentration (IC50) stood at 2.9 µM.
Take `O=c1[nH]ccnc1CN1CCC(c2nc(-c3ccc(F)cc3)no2)CC1` [Example 189, 3-[4-[3-(4-Fluorophenyl)-1,2,4-oxadiazol-5-yl]piperidino]methyl-1H-pyrazin-2-one]: the IC50 came out at 7.2 µM.
For the compound `N#CC1(COc2ccccc2F)CCN(Cc2ncc[nH]c2=O)CC1` [Example 221, 3-[4-Cyano-4-(2-fluorophenoxymethyl)piperidino]methyl-1H-pyrazin-2-one], the IC50 turned out to be 4.9 µM.
Next, `CCCOc1ccccc1CC(=O)C1CCN(Cc2ncc[nH]c2=O)CC1` [Example 348, 3-[4-[2-(2-n-Propoxyphenyl)acetyl]piperidino]methyl-1H-pyrazin-2-one]: 2.6 µM; `Cc1ccccc1OCC1(C)CCN(Cc2ncc[nH]c2=O)CC1` [Example 355, 3-[4-Methyl-4-(2-methylphenoxymethyl)piperidino]methyl-1H-pyrazin-2-one]: 2.5 µM.
`O=C(Cc1ccccc1F)C1CCN(Cc2ccn[nH]c2=O)CC1` [Example 364, 4-[4-[2-(2-Fluorophenyl)acetyl]piperidino]methyl-2H-pyridazin-3-one]: the IC50 was 9.3 µM.
The figure for `O=c1[nH]ccnc1CN1CCC(/C=C/c2ccccc2OCC2CCCCC2)CC1` [Example 412, (E)-3-[4-[2-[2-(Cyclohexylmethyloxy)phenyl]vinyl]piperidino]methyl-1H-pyrazin-2-one oxalate] is 1.2 µM; for `COc1ccccc1OCC1CCN(CCc2cncc(=O)[nH]2)CC1` [Example 240, 6-[2-[4-(2-Methoxyphenoxymethyl)piperidino]ethyl]-1H-pyrazin-2-one] it is 6.4 µM; for `O=c1[nH]ccnc1CN1CCC(COc2ccc(F)cc2)CC1` [Example 199, 3-[4-(4-Fluorophenoxymethyl)piperidino]methyl-1H-pyrazin-2-one] it is 6.2 µM.
With `Cc1ccc(-c2ccccc2)n1CC1CCN(Cc2ncc[nH]c2=O)CC1` [Example 182, 3-[4-(2-Methyl-5-phenylpyrrol-1-yl)methyl-piperidino]methyl-1H-pyrazin-2-one], the IC50 turned out to be 7.8 µM.
`CC1(COc2ccccc2Cl)CCN(Cc2ncc[nH]c2=O)CC1` [Example 354, 3-[4-(2-Chlorophenoxymethyl)-4-methylpiperidino]methyl-1H-pyrazin-2-one]: the IC50 is 2.8 µM.
Turning to `CCOC(=O)C1(CCc2ccccc2)CCN(Cc2ncc[nH]c2=O)CC1` [Example 216, 3-[4-(Ethoxycarbonyl)-4-(2-phenylethyl)piperidino]methyl-1H-pyrazin-2-one], the IC50 is 3.2 µM.
With `O=c1[nH]ccnc1CN1CCC(CCOc2ccccc2F)CC1` [Example 159, 3-[4-[2-(2-Fluorophenoxy)ethyl]piperidino]methyl-1H-pyrazin-2-one], the IC50 stood at 9.4 µM.
With `O=c1[nH]ccnc1CN1CCC(CC(O)c2ccccc2F)CC1` (centres unmarked) [Example 144, 3-[4-[2-(2-Fluorophenyl)-2-hydroxyethyl]piperidino]methyl-1H-pyrazin-2-one], the IC50 is 5.8 µM.
Consider `O=C(Cc1ccccc1OC(F)(F)F)C1CCN(Cc2ncc[nH]c2=O)CC1` [Example 345, 3-[4-[2-[2-(Trifluoromethoxy)phenyl]acetyl]piperidino]methyl-1H-pyrazin-2-one], for which the IC50 turned out to be 2.1 µM.
The figure for `O=C(Cc1ccccc1-c1ccccc1)C1CCN(Cc2ncc[nH]c2=O)CC1` [Example 359, 3-[4-[2-(2-Biphenyl)acetyl]piperidino]methyl-1H-pyrazin-2-one] is 1.4 µM; for `O=c1[nH]ccnc1CN1CCC(CSc2ccccc2F)CC1` [Example 336, 3-[4-[(2-Fluorophenylthio)methyl]piperidino]methyl-1H-pyrazin-2-one] it is 4.7 µM.
Next, `O=c1cncc(CCN2CCC(C#Cc3ccccc3F)CC2)[nH]1` [Example 244, 6-[2-[4-[(2-Fluorophenyl)ethynyl]piperidino]ethyl]-1H-pyrazin-2-one]: 3.1 µM; `O=C(Cc1ccccc1)C1CCN(Cc2ncc[nH]c2=O)CC1` [Example 196, 3-[4-(2-Phenylacetyl)piperidino]methyl-1H-pyrazin-2-one]: 6.2 µM.
Turning to `C[C@@H]1CN(Cc2ncc[nH]c2=O)CC[C@H]1C(=O)Cc1ccccc1F` (relative stereo) [Example 366, trans-3-[4-[2-(2-Fluorophenyl)acetyl]-3-methylpiperidino]methyl-1H-pyrazin-2-one], the IC50 came out at 4.2 µM.
With `O=C(Cc1cccc2ccccc12)C1CCN(Cc2ncc[nH]c2=O)CC1` [Example 353, 3-[4-[2-(1-Naphthyl)acetyl]piperidino]methyl-1H-pyrazin-2-one], the IC50 is 1.7 µM.
As for `O=c1[nH]ccnc1CN1CCC(/C=C/c2sccc2F)CC1` [Example 173, (E)-3-[4-[2-(3-Fluoro-2-thienyl)vinyl]piperidino]methyl-1H-pyrazin-2-one], the IC50 turned out to be 4.3 µM.
Consider `O=c1[nH]ccnc1CN1CCC(O)(COc2ccccc2F)CC1` [Example 211, 3-[4-Hydroxy-4-(2-fluorophenoxymethyl)piperidino]methyl-1H-pyrazin-2-one], for which the IC50 was determined as 8.2 µM.
For the compound `O=c1[nH]ccnc1CN1CCCCC1CCOc1ccccc1F` (centres unmarked) [Example 209, 3-[2-[2-(2-Fluorophenoxy)ethyl]piperidino]methyl-1H-pyrazin-2-one], the IC50 was found to be 2.1 µM.
As for `O=c1cncc(CCN2CCC3(CC2)CC(Oc2ccccc2F)C3)[nH]1` [Example 119, 6-[2-[2-(2-Fluorophenoxy)-7-azaspiro[3.5]non-7-yl]ethyl]-1H-pyrazin-2-one], the IC50 came out at 8.4 µM.
In the case of `Cc1ccccc1OCC1(C#N)CCN(Cc2ncc[nH]c2=O)CC1` [Example 121, 1-(3-Oxo-3,4-dihydro-2-pyrazinylmethyl)-4-(2-methylphenoxymethyl)piperidine-4-carbonitrile], the IC50 was determined as 5.7 µM.
Next, `O=c1[nH]ccnc1CN1CCOC(CCc2ccccc2F)C1` (centres unmarked) [Example 340, 3-[3-[2-(2-Fluorophenyl)ethyl]morpholin-1-yl]methyl-1H-pyrazin-2-one]: 7.1 µM.
Next, `O=c1[nH]ccnc1CN1CCC(O)(C#Cc2ccccc2F)CC1` [Example 217, 3-[4-(2-Fluorophenyl)ethynyl-4-hydroxypiperidino]methyl-1H-pyrazin-2-one]: 1.8 µM.
